Measurements taken from US12391660B2, “Heteroaromatic acetamide derivative, and preparation and use thereof” (Hangzhou Westan Pharmaceutical Technology Co., Ltd, priority 2019, dated 2025).

Test system: asthmatic rats
Assay: Ovalbumin-induced asthma rat model (HE staining, lung tissue inflammation area, airway inflammation score)
Assay type: in vivo, SD rats
Excerpt: 4. Effects of Compounds on Ovalbumin-Induced Asthma in Mouse and Rat Models
SPF-grade SD male rats (purchased from Zhejiang Academy of Medical Sciences, license number SCXK (Zhejiang) 2019-0002) with a body weight of 160-180 g; and SPF-grade female BABL/c mice (purchased from Zhejiang Weitong Lihua Experimental Animals Technology Co., Ltd., license number SCXK (Zhejiang) 2019-0001) with a body weight of 16-18 g were used. The above animals were raised by the Experimental Animal Center of Zhejiang Academy of Traditional Chinese Medicine.
Formulation of compound solution: compound was vortexed in a solvent system, dissolved by ultrasound, and prepared into a solution at a corresponding concentration, which was prepared just before use (the solvent system was composed of 5% Solutol HS 15, 5% DMSO and 90% physiological saline).
BABL/c mice or SD rats were randomly divided into: normal control group, model control group, dexamethasone group (0.72 mg/kg), and the respective test compound groups (one group for each dose), 10 mice in each group; 6 rats in each group.
Sensitization of rats: On Day 1 and Day 8, the model control group and the respective drug administration groups were intraperitoneally injected with 1 ml of 10% OVA sensitizing solution, and the normal group was intraperitoneally injected with an equal volume of normal saline.
Rat: from Day 15, the dexamethasone group and the respective test compound groups were intraperitoneally injected, 20 minutes before challenge, with the corresponding drugs with an injection volume of 0.3 ml/100 g; the model control group was intraperitoneally injected, 20 minutes before challenge, with an equal volume of solvent system; and the normal control group was not treated. Administration was conducted for 7 consecutive days. […]
The rat was anesthetized with 10% urethane at 1.3 ml/100 g volume, and the left lung tissue was taken and fixed in 4% neutral formaldehyde, paraffin-embedded according to routine operation, sectioned for HE staining. […] NIS-Elements D 3.2 software was used to manually integrate and measure the total area of lung tissue sections and the inflammation area under all fields of view, the total areas under each field of view were accumulated, and the percentage of the cumulative area of inflammation in the total area was calculated, wherein the percentage of inflammation area=cumulative area of inflammation/total area×100%.
All data were expressed as mean±standard deviation (x±s), and the data were processed by SPSS 20.0 statistical software. […]

[1] = intraperitoneal injection, vs model group, P<0.05, 0.01

N#Cc1ccc(NC2(C(=O)N3CCN(c4ccc(C(F)(F)F)cc4)CC3)CCCC2)cc1 [Compound 1, 4-((1-(4-(4-(trifluoromethyl)phenyl)piperazine-1-carbonyl)cyclopentyl)amino)benzonitrile]
lung tissue inflammation and inflammatory cell infiltration around the airway (HE x40) (compared with the model group): significant improvement | airway inflammation score [1]: significantly decreased | lung tissue inflammation area [1]: significantly decreased
